The values below are quoted from earlier work in patent US5886190A, “Rapid synthesis and use of 18F-fluoromisonidazole and analogs” (priority 1997, dated 1999).

Structures are written as SMILES.

Data set [1] has as its system patients. The following applies: clinical trials; cited from earlier work.
The subject of data set [2] is cancer of the pharynx. To be noted: cited from earlier work.

For `O=C(Cn1ccnc1[N+](=O)[O-])NCCO` [etanidazole], the Dose-limiting toxicity result in data set [1] is “peripheral neuropathy that progressed to central nervous system toxicity if drug administration was not stopped”. For the same compound, the Radiosensitizer potency entry in data set [2] (human, in vivo) is “potent radiosensitizers”. Moreover, in data set [2] (patients with high hemoglobin levels and cancer of the pharynx), the “Clinical benefit on addition” value is listed as “great benefit”.
